Measurements: ChEMBL document CHEMBL1131496, “Excitatory amino acid receptor ligands: resolution, absolute stereochemistry, and enantiopharmacology of 2-amino-3-(4-butyl-3-hydroxyisoxazol-5-yl)propionic acid” (J Med Chem, 1998)

Experiments:
[1] = In vitro binding affinity against Metabotropic glutamate receptor using [3H](S)-glutamic acid; parameters: species or system Mus musculus
Mus musculus [2] = experiment: In vivo convulsant activity were tested in mice after subcutaneous administration.; assay type: functional; conditions: sc
Rattus norvegicus = species on record: Rattus norvegicus; experiment: Compound was tested for electrophysiological experiments using rat cortical wedge preparation; assay type: functional
[3] = molecular target: Glutamate receptor ionotropic, AMPA (Mus musculus, UniProt P23818+P23819+Q9Z2W8+Q9Z2W9)
Description: Compound was tested for in vitro binding affinity against Ionotropic glutamate receptor AMPA using [3H]AMPA ligand

Mus musculus [4] = experiment: In vivo convulsant activity were tested in mice after intravenous administration.

| Structure (SMILES) | IC50 [1] [µM] | ED50 (Mus musculus [2]) [µmol/kg] | EC50 (Rattus norvegicus) [µM] | IC50 [3] [µM] | ED50 (Mus musculus [4]) [µmol/kg] |
| --- | --- | --- | --- | --- | --- |
| CCCCc1c(O)noc1CC(N)C(=O)O (stereo unspecified) | 0.63 | 110 | 37 | 1.8 | 94 |
| N[C@@H](Cc1onc(O)c1Br)C(=O)O | 0.22 |  | 21 | 0.34 |  |
| NC(Cc1onc(O)c1Br)C(=O)O (stereo unspecified) | 0.2 |  | 23 | 0.6 |  |
| Cc1onc(O)c1CC(N)C(=O)O [(R,S)-AMPA] | > 100 |  |  |  | 55 |
| N[C@H](Cc1onc(O)c1Br)C(=O)O | 0.15 |  | > 1000 | 32 |  |
| CCCCc1c(O)noc1C[C@@H](N)C(=O)O | 0.57 |  | > 1000 | > 1000 | > 350 |
| N[C@@H](Cn1oc(=O)[nH]c1=O)C(=O)O [QUISQUALATE] | 0.025 |  | 7.3 |  |  |
| CCCCc1c(O)noc1C[C@H](N)C(=O)O | 0.64 |  | 17 | 0.48 | 44 |
